The results in this text go back to patent publication US20180186796A1, “COMPOUNDS AND USES THEREOF” (LEAD DISCOVERY SIENA S.R.L., priority 2014, published 2018).

For one series, the target named is T1, Recombinant human Src (Homo sapiens, UniProt P12931).
T1 construct: purchased Upstate (Lake Placid, N.Y.)
Description: Enzymatic assay on isolated Src. Type of series: biochemical.

Another series has as its target T2, Recombinant human Abl (Homo sapiens, UniProt P00519).
T2 construct: purchased Upstate
Nature of the series: Enzymatic assay on isolated Abl. It counts as biochemical. Conditions: mean of at least two experiments.

A short description of another series: Water solubility assay. Conditions: for H2O Solubility: Table 6; for H2O Sol.: Table 8, 20° C., 24 h.
Series [1] can be described thus: Microsomal stability assay. Conditions: for Metabolic Stab.: percentage of unmodified parent drug, human liver microsomes 60 min; for Metabolic Stab. %: percentage of unmodified drug, Table 8. A general note: Liver microsomes are a subcellular fraction often used to study metabolism.
The nature of series [2]: PAMPA, intestinal (GI) permeability. Conditions: for Papp / Papp at 5 h, 0.5 mM: PAMPA; for Papp: Table 6; for PAMPA GI (MR %): Membrane Retention; for Papp at 5 h, 0.5 mM: pH 7.4. (In PAMPA a lipid-coated filter parts donor from acceptor wells.)
The next series relates to K562 cells. Description: Antiproliferative activity on human cell line K562. Type of series: cell-based. Particulars: Homo sapiens, K562, read-out: Cellular Data (IC50, μM) K562.
The target in a further series is recombinant Fyn (Homo sapiens, UniProt P06241). Nature of the series: Enzymatic assay on isolated Fyn kinase. Particulars: read-out: Enzymatic Data (Ki, μM) Fyn.
Series [3] can be described thus: Stability tests in phosphate buffer and methanol. Type of series: physicochemical. Conditions: 20° C., 48 h incubation.
Series [4] in a line: Enzymatic stability in human plasma. Type of series: in vitro ADME. Particulars: for half-life at 100 μM: human, pooled human plasma diluted with phosphate buffer, pH 7.4.
The next series concerns SH-SY5Y cells. Nature of the series: Antiproliferative activity on neuroblastoma human cell line SH-SY5Y. Type of series: cell-based. Conditions: 72 h, viable cells vs untreated. The method, then: (§1) In vitro experiments were carried out using the human neuroblastoma cell line SH-SY5Y. Cells were purchased from American Type Culture Collection (ATCC, Manassas, Va., USA) and were cultured in DMEM medium supplemented with 100/Foetal Bovine Serum. In order to determine antiproliferative effect of drugs SH-SY5Y cells were seeded at 2×10^5 cells/ml density and treated with compounds at increasing concentrations from 0.01 to 50 μM. The cultures were maintained at 37° C. in 5% v/v CO2 for 72 h. Cell number and vitality were evaluated using the automatic cell counter NucleoCounter® (Chemometec, Denmark). Results from the NucleoCounter represented either total or non-viable cell concentration, depending on the sample preparation indicated by manufacturer.
as §1, with “10% Foetal” for “100/Foetal”

The next series concerns U251 cells. Description: Proliferation assay on U251 cells. Type of series: cell-based, human. Conditions: 72 h, viable cells vs untreated. The method, then: (§2) U87 and U251 cells were purchased from European Collection of Cell Cultures (ECACC, Salisbury, UK) and were cultured in DMEM medium supplemented with 10% Foetal Bovine Serum. In order to determine antiproliferative effect of drugs tumor cells were seeded at 2×10^5 cells/ml density and treated with compounds at indicated concentrations. The cultures were maintained at 37° C. in 5% v/v CO2 for 72 h. Cell number and viability were evaluated by Trypan blue exclusion test. Viable cells were expressed as percentage respect to cells treated with vehicle (=100%). Mean and SD values of at least three different experiments are shown.
(§3) U87 and U251 cells were purchased from European Collection of Cell Cultures (ECACC, Salisbury, UK) and were cultured in DMEM medium supplemented with 10% Foetal Bovine Serum. In order to determine antiproliferative effect of drugs tumor cells were seeded at 2×10^5 cells/ml density and treated with compounds at indicated concentrations. The cultures were maintained at 37° C. in 5% v/v CO2 for 72 h. Cell number and viability were evaluated by Trypan blue exclusion test. Viable cells were expressed as percentage respect to untreated cells (=100%/). Mean and SD values of at least three different experiments are shown.

Another series concerns U87 cells. Nature of the series: Proliferation assay on U87 cells. It counts as cell-based, human. Conditions: 72 h, viable cells vs untreated. The method, then:
as §2, §3

The nature of another series: PAMPA, BBB permeability. Conditions: for PAMPA BBB (MR %): Membrane Retention; for Papp at 5 h, 0.5 mM: PAMPA, pH 7.4.
The mark [5] stands for this setting: mean of at least two experiments, read-out: Enzymatic Data (Ki, μM) c-Src.
The mark [6] stands for this setting: methanol, read-out: Stability MeOH t1/2.
Setting [7] is: phosphate buffer, pH 7.4, read-out: Stability PBS pH 7.4 t1/2.
The mark [8] stands for this setting: water, 20 °C, thermodynamic from solid.

Converted amounts (≈) assume the structure as drawn. Read-outs that look alike come from different tables or passages of the source. A value given as a limit tells only on which side of the number the result lay.

By Ki is commonly meant a dissociation constant, usually derived from enzyme kinetics or from competition with a known ligand. A word on the Papp: it is a coefficient for how fast a substance crosses the barrier. Lower therefore signals poor permeation. As a reminder, the IC50 is the midpoint of a concentration-inhibition curve. Usually melting point stands for the temperature of the solid-liquid transition. As usually defined, the solubility is how much of the substance goes into solution per volume. Read a low solubility as little dissolved substance. In general, thermodynamic solubility refers to solubility found after equilibrating the solid with the medium.

T2 sequence (P00519 whole entry): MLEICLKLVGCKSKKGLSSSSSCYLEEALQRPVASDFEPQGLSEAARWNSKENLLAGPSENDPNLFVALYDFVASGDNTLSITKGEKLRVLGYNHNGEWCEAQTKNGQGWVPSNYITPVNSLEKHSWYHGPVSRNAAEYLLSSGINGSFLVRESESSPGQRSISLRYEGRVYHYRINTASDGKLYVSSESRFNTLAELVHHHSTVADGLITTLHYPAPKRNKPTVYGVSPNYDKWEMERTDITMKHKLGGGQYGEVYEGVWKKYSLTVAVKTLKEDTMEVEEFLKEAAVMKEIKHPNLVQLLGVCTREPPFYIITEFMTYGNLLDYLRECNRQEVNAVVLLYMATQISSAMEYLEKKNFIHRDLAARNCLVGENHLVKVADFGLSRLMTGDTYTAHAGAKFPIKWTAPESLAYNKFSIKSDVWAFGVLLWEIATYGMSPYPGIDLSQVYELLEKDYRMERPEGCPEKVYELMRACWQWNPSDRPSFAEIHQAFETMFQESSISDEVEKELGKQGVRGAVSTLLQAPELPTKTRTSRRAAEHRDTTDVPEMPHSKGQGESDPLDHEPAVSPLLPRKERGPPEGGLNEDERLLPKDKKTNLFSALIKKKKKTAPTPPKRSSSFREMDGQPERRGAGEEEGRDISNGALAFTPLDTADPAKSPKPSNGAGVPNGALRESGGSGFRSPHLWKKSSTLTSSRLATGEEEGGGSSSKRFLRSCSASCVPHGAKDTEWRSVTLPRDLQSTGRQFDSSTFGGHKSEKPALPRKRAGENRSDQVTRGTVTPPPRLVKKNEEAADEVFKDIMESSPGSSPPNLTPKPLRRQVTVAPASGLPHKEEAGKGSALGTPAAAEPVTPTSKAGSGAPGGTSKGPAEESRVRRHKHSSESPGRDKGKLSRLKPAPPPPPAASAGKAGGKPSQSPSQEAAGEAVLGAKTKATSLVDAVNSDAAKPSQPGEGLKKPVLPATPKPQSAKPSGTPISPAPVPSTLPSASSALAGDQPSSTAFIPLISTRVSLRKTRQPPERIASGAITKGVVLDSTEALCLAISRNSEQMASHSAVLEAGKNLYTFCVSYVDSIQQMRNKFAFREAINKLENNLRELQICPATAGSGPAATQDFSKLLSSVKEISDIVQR
T1 sequence (P12931 whole entry): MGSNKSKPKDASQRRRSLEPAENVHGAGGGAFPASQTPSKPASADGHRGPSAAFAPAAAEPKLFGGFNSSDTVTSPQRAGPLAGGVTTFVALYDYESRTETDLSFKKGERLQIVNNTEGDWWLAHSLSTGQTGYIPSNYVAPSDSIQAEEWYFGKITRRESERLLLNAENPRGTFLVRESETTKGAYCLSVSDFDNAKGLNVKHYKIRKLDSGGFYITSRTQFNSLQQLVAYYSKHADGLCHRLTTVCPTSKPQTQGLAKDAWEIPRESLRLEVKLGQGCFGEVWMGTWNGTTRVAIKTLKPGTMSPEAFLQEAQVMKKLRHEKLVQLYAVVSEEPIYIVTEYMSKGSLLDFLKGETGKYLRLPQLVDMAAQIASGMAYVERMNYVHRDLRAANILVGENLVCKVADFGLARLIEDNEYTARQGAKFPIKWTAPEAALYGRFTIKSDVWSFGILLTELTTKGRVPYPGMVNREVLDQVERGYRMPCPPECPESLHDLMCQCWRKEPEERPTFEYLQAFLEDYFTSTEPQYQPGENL
Sequence of recombinant Fyn (P06241 whole entry, looked up): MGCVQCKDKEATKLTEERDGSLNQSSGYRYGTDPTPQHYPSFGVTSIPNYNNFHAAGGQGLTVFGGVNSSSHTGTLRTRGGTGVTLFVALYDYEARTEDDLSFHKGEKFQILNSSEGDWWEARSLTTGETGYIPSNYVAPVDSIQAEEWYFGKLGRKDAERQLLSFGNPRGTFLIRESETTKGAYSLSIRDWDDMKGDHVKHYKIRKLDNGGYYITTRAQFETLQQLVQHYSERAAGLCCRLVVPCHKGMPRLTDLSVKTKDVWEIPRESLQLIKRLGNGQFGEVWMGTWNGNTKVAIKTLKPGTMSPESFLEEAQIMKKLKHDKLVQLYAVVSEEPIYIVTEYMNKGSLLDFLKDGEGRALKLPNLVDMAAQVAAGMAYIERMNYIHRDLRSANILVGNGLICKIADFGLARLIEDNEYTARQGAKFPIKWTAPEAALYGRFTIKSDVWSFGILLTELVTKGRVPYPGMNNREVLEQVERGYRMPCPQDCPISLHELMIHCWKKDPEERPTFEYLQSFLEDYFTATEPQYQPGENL
Description for K562 cells: In vitro experiments were carried out using the human Chronic Myelogeneous Leukemia cell line K562. Cells were purchased from American Type Culture Collection (ATCC, Manassas, Va., USA) and were cultured in RPMI medium supplemented with 10% Foetal Bovine Serum. […] Cell number and vitality were evaluated using the automatic cell counter NucleoCounteri (Chemometec, Denmark). Results from the NucleoCounter represented either total or non-viable cell concentration, depending on the sample preparation indicated by manufacturer.
In vitro experiments were carried out using the human Chronic Myelogeneous Leukemia cell line K562. Cells were purchased from American Type Culture Collection (ATCC, Manassas, Va., USA) and were cultured in RPMI medium supplemented with 10% Foetal Bovine Serum. […] Cell number and vitality were evaluated using the automatic cell counter NucleoCounter® (Chemometec, Denmark). Results from the NucleoCounter represented either total or non-viable cell concentration, depending on the sample preparation indicated by manufacturer.
Description for Recombinant human Abl: Recombinant human Abl was purchased from Upstate.
Activity was measured in a filter binding assay using an Abl specific peptide substrate (Abtide, Upstate).
Description for Recombinant human Src: Recombinant human Src was purchased from Upstate (Lake Placid, N.Y.).
Description for Water solubility assay: Each solid compound (1 mg) was added to 1 mL of water. […] The suspensions were filtered through a 0.45 μm nylon filter (Acrodisc), and the solubilized compound determined by LC-MS-MS assay. For each compound the determination was performed in triplicate. […] The flow rate was 0.2 mL min-^−1 and injection volume was 5 μL. The instrument operated in positive mode and parameters were: detector 1850 V, drying gas pressure 25.0 psi, desolvation temperature 300.0° C., nebulizing gas 40.0 psi, needle 5000 V and shield 600 V. Nitrogen was used as nebulizer gas and drying gas.
Solid compound (1 mg) was added to 1 mL of water. […] The suspensions were filtered through a 0.45-μm nylon filter (Acrodisc), and the solubilised compound determined by LC-UV-MS assay. The determination was performed in triplicate.
Chromatographic analysis was performed with the method above reported and quantification of compounds was made by comparison with apposite calibration curves realized with standard solutions in methanol.
Description for recombinant Fyn: Kinase assays were performed in presence of 200 μM ATP and 100 μM peptide substrate. All inhibition assays were conducted with 0.01 μg active kinase, 0.33 μmol [^γ32P]ATP, 60 mM HEPES-NaOH pH 7.5, 3 μM Na-orthovanadate, 1.2 mM DTT, 50 μg/ml PEG20.0000, 10 mM magnesium acetate, 0.004% NP40 and 10% DMSO in a final volume of 10 μL. Fyn and inhibitors were preincubated in ice for 5 min; after addition of the substrates the reaction was conducted at 30° C. for 10 min. The reaction was stopped by adding 5 μL of 3% phosphoric acid. Aliquots (10 μL) were then transferred into a P30 Filtermat (PerkinElmer), washed five times with 75 mM phosphoric acid and once with acetone for 5 minute. The filter was dried and transferred to a sealable plastic bag, and scintillation cocktail (4 mL) was added. Spotted reactions were read in a MicroBeta Liquid (Perkinelmer) scintillation counter. The ID50 values were obtained according to the following equation:
Ki values toward recombinant Fyn were calculated using the equation:
according to a competitive mechanism of inhibition toward ATP substrate, where [SATP] is the concentration of ATP. Curve fitting was performed with the program GraphPad Prism version 5.00.

As to `CC(C)Sc1nc(Nc2cccc(O)c2)c2cnn(CC(Cl)c3ccccc3)c2n1` (stereo not drawn) [Si323], the Ki at Recombinant human Src (read-out: Ki c-Src) worked out at 0.01 µM; on Recombinant human Abl, 0.12 µM. Further, in “Water solubility assay”, the “H2O Solubility” value came out at 0.9 µg/mL. Also, the “Metabolic Stab.” value in [1] came to 95%. Moreover, the Papp in [2] is reported as 4.53 10^−6 cm/sec.

For `Oc1cccc(Nc2nc(SC3CCCC3)nc3c2cnn3CC(Cl)c2ccccc2)c1` (stereo not drawn) [Si330], the Ki came out at 0.007 µM at Recombinant human Src (read-out: Ki c-Src) and 0.15 µM at Recombinant human Abl. For the same molecule, the “H2O Solubility” value in the series “Water solubility assay” was 0.6 µg/mL. Also, the “Metabolic Stab.” value in [1] is given as 91%. Besides, in [2], the Papp was 3.91 10^−6 cm/sec.

On to `Fc1cccc(Nc2nc(SC3CCCC3)nc3c2cnn3CC(Cl)c2ccccc2)c1` (stereo not drawn) [drawing 179], for which the figures for the Ki on Recombinant human Src (setting [5]) and at Recombinant human Abl were 0.11 µM and above 100 µM, respectively. Besides, the “Metabolic Stab.” value in series [1] amounted to 95%. The Papp in [2] is on record as 14 10^−6 cm/sec.

On to `Nc1ncnc2c1c(-c1ccc(F)cc1)nn2CC(Cl)c1ccccc1` (stereo not drawn) [Si310, 1-(2-Chloro-2-phenylethyl)-3-(4-fluorophenyl)-1H-pyrazolo[3,4-d]pyrimidin-4-amine], for which the melting point was 203 to 206 °C. In addition, in the series on K562 cells, the IC50 was determined as 12.6 ± 14.8 µM. The Ki at recombinant Fyn was determined as 0.36 µM.

As for `CN1CCN(CCOC(=O)N(c2ccccc2)c2ncnc3c2cnn3CC(Cl)c2ccc(Br)cc2)CC1` (stereo not drawn) [proSi223, 2-(4-Methylpiperazin-1-yl)ethyl (1-(2-(4-bromophenyl)-2-chloroethyl)-H-pyrazolo[3,4-d]pyrimidin-4-yl)(phenyl)carbamate], the half-life at 500 μM in series [3] (setting [6]) and in series [3] (setting [7]) was above 48 h in each case. Further, in series [4] (37° C., read-out: Stability Human Plasma t1/2 (converted)), the half-life at 100 μM is 4.47 h. The IC50 stood at 12600 nM with SH-SY5Y cells (Homo sapiens, SH-SY5Y); 4700 nM with U251 cells (Homo sapiens, U-251); 5100 nM in the series with U87 cells (Homo sapiens, U-87 MG). In the series “Water solubility assay” (setting [8]), this molecule showed a solubility at 24 h of 70.8 µM (≈ 42.4 µg/mL). Also, the solubility (thermodynamic) at 24 h in “Water solubility assay” (setting [8]) was 41.6 µg/mL (≈ 69.4 µM). The “PAMPA BBB (MR %)” value in the series “PAMPA, BBB permeability” is reported as “(24.9) %”. Further, the Papp at 5 h, 0.5 mM in the series “PAMPA, BBB permeability” worked out at 6.97 ×10⁻⁶ cm/s; in series [2], 9.91 ×10⁻⁶ cm/s. For the same molecule, the “PAMPA GI (MR %)” value in series [2] is reported as “(16.0) %”.

Turning to `CSc1nc(Nc2cccc(Br)c2)c2cnn(CC(C)c3ccccc3)c2n1` (stereo not drawn) [Si278, N-(3-bromophenyl)-6-(methylthio)-1-(2-phenylpropyl)-H-pyrazolo[3,4-d]pyrimidin-4-amine], the IC50 in the series with SH-SY5Y cells came to 1200 nM; in the series on U251 cells, 3700 nM; in the series on U87 cells, 5800 nM. For the same molecule, the “H2O Sol. (Log S)” value in the series “Water solubility assay” (Table 8) is recorded as “(<−7.60) log mol · L^−1”. Further, in the series “Water solubility assay”, the “H2O Sol.” value was below 0.01 µg/mL. In addition, the “PAMPA BBB” value in the series “PAMPA, BBB permeability” (Blood Brain Barrier PAMPA) was 0.50 10^−6 cm · sec^−1. The “PAMPA BBB (MR %)” value in “PAMPA, BBB permeability” is given as “(66.3) %”. The “Metabolic Stab. %” value in [1] amounted to 95.1%. The “PAMPA GI” value in [2] (Gastrointestinal PAMPA, Table 8) is given as 0 10^−6 cm · sec^−1. The “PAMPA GI (MR %)” value in [2] is “(80.4) %”.

On to `Clc1cccc(Nc2nc(SCCN3CCOCC3)nc3c2cnn3CC(Cl)c2ccccc2)c1` (stereo not drawn) [Si181, 1-(2-chloro-2-phenylethyl)-N-(3-chlorophenyl)-6-((2-morpholinoethyl)thio)-1H-pyrazolo[3,4-d]pyrimidin-4-amine, reference compound], for which the Ki was found to be 0.19 µM at Recombinant human Src (setting [5]) and 0.12 µM on Recombinant human Abl. Further, in “Water solubility assay”, the “H2O Solubility” value was 0.1 µg/mL. In addition, the “Metabolic Stab.” value in [1] is 95%. Also, the Papp in series [2] is 9.5 10^−6 cm/sec.

Turning to `CSc1nc(Nc2cccc(O)c2)c2cnn(CC(Cl)c3ccccc3)c2n1` (stereo not drawn) [Si322], the Ki on Recombinant human Src (read-out: Ki c-Src) was found to be 0.03 µM; at Recombinant human Abl it was 0.15 µM. The “H2O Solubility” value in the series “Water solubility assay” is 4.3 µg/mL. The “Metabolic Stab.” value in series [1] is 98%. For the same molecule, in series [2], the Papp is 5.92 10^−6 cm/sec.

For the molecule `CCCCN(C(=O)OCCN1CCN(C)CC1)c1nc(SCC)nc2c1cnn2CC(Cl)c1ccccc1` (stereo not drawn) [proSi20, 2-(4-Methylpiperazin-1-yl)ethyl butyl(1-(2-chloro-2-phenylethyl)-6-(ethylthio)-1H-pyrazolo[3,4-d]pyrimidin-4-yl)carbamate], the IC50 was 300 nM in the series on SH-SY5Y cells (Homo sapiens, SH-SY5Y); 800 nM in the series with U251 cells (Homo sapiens, U-251); 3600 nM in the series with U87 cells (Homo sapiens, U-87 MG).

`CSc1nc(N(C(=O)OCCN2CCN(C)CC2)c2cccc(Br)c2)c2cnn(CC(C)c3ccccc3)c2n1` (stereo not drawn) [proSi278 (A), 2-(4-Methylpiperazin-1-yl)ethyl (3-bromophenyl)(6-(methylthio)-1-(2-phenylpropyl)-1H-pyrazolo[3,4-d]pyrimidin-4-yl)carbamate]: the half-life at 500 μM in series [3] (setting [6]) and in series [3] (setting [7]) was above 48 h throughout. Besides, the “Stability Human Plasma t1/2” value in [4] (37° C.) is 3.21 h. For the same molecule, the half-life at 100 μM in [4] (read-out: t1/2 in human plasma (converted)) is 3.21 h. The IC50 is 400 nM with SH-SY5Y cells (Homo sapiens, SH-SY5Y); 5200 nM in the series on U251 cells (Homo sapiens, U-251); 6300 nM with U87 cells (Homo sapiens, U-87 MG). Besides, in “Water solubility assay”, the “H2O Sol.” value is 6.47 µg/mL. The molecule further showed a solubility at 24 h in the series “Water solubility assay” (setting [8]) of 11.5 µM (≈ 7.17 µg/mL). Besides, the “PAMPA BBB (MR %)” value in “PAMPA, BBB permeability” is “(49.8) %”. Moreover, the Papp at 5 h, 0.5 mM is 1.89 ×10⁻⁶ cm/s in “PAMPA, BBB permeability” and 2.11 ×10⁻⁶ cm/s in [2]. Further, the “Metabolic Stab. %” value in [1] was 99.9%. In addition, in series [2], the “PAMPA GI (MR %)” value is reported as “(67.0) %”.
